Results published in ChEMBL document CHEMBL3352790, “Small molecule ghrelin receptor inverse agonists and antagonists” (J Med Chem, 2014).

Tests used:
[1] = biological target: T1, Growth hormone secretagogue receptor type 1 (Homo sapiens, UniProt Q92847); experiment: Antagonist activity against human ghrelin receptor by FLIPR assay
[2] = biological target: T1, Growth hormone secretagogue receptor type 1; experiment: Binding affinity to human ghrelin receptor by receptor binding assay
[3] = organism: Mus musculus; experiment: Reduction in fat content in mouse; type: functional; parameters: scale not given: the % may be the effect or the level left
[4] = Oral bioavailability in rat; type: ADME, organism-based; conditions: in vivo
[5] = tested on: Mus musculus; experiment: Reduction in food intake in C57BL/6J mouse at 30 mg/kg, ip after 2 hrs; type: functional; conditions: route intraperitoneal
[6] = Unbound fraction rat brain; type: ADME, tissue-based

T1 sequence (Q92847 whole entry): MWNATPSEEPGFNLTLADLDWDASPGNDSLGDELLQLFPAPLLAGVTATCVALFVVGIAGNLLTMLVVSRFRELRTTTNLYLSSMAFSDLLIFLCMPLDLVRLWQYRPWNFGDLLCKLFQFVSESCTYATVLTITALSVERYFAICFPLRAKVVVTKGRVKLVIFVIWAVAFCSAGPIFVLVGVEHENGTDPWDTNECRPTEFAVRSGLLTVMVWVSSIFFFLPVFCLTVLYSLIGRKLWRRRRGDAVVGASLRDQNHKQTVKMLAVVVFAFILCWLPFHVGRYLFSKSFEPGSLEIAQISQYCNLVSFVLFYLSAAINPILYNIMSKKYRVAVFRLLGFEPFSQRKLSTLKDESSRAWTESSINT

O=C(NNc1cc(C(F)(F)F)cc(C(F)(F)F)c1)[C@@H](c1cccnc1)N1CCN2CCC[C@@H]2C1
IC50 [1]: 3.98 nM

CCN(CC)CCCS(=O)(=O)N[C@H](CCc1ccccc1)c1nc(-c2ccc(OC)cc2)n[nH]1
Ki [2]: 15 nM | Activity [3]: 50% | bioavailability [4]: 63%

CC(NC(=O)N(Cc1ccccc1Cl)C1CCN(C)CC1)c1cccc(Cl)c1Cl (configuration not stated)
inhibition in vivo at 30 mg/kg [5]: 70%

CN1CCN([C@@H](C(=O)NNc2cc(C(F)(F)F)cc(C(F)(F)F)c2)c2ccccc2Cl)CC1
Fu [6]: 0.2% | IC50 [1]: 6.31 nM
